Values quoted from earlier work, collected in patent publication US12678479B2, “Pharmaceutical compositions comprising teixobactin” (priority 2018, dated 2026).

Tested on: MRSA ATCC 33591
Details: comparison value

Compound: CN[C@H](CC(C)C)C(=O)N[C@H]1C(=O)N[C@@H](CC(N)=O)C(=O)N[C@H]2C(=O)N[C@H]3C(=O)N[C@H](C(=O)N[C@H](C(=O)O)c4cc(O)cc(O)c4-c4cc3ccc4O)[C@H](O[C@H]3C[C@](C)(N)[C@@H](O)[C@H](C)O3)c3ccc(c(Cl)c3)Oc3cc2cc(c3O[C@@H]2O[C@H](CO)[C@@H](O)[C@H](O)[C@H]2O[C@H]2C[C@](C)(NCc3ccc(-c4ccc(Cl)cc4)cc3)[C@@H](O)[C@H](C)O2)Oc2ccc(cc2Cl)[C@H]1O [Orbactiv, oritavancin]
- effective dose: 4 to 5 mg/kg
